The target in assay [1] is T1, RNA demethylase ALKBH5 (Homo sapiens, UniProt Q6P6C2). Description: Inhibition of ALKBH5 (66 to 292 residues)(unknown origin) expressed in Escherichia coli BL21(DE3) using 5'-ATTGTCA(m6A)CAGCAGA-FAM-3' as substrate incubated for 30 mins by FP assay.
Target sequence in this assay (Q6P6C2 whole entry, the tested form may be a part): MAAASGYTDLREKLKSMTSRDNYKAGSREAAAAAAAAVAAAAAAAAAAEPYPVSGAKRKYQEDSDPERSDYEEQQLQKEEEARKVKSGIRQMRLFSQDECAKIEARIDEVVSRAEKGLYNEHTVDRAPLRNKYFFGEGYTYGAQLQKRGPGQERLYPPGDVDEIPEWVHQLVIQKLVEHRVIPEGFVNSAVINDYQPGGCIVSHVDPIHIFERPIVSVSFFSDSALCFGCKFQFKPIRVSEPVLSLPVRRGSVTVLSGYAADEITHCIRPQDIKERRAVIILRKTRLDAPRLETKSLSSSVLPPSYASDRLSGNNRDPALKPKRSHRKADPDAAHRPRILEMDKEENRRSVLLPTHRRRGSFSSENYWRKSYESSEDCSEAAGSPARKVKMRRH
Assay [2] addresses Alpha-ketoglutarate-dependent dioxygenase FTO (Homo sapiens, UniProt Q9C0B1). As to the kind of experiment: Inhibition of FTO (32 to 505 residues)(unknown origin) expressed in Escherichia coli BL21(DE3) by FP assay.
For assay [3], the target named is T1, RNA demethylase ALKBH5. As to the kind of experiment: Inhibition of ALKBH5 (66 to 292 residues)(unknown origin) expressed in Escherichia coli BL21(DE3) using 5'-ATTGTCA(m6A)CAGCAGA-FAM-3' as substrate incubated for 30 mins in presence of 200 uM of 2-OG by FP based competitive binding assay.
Target sequence in this assay (Q6P6C2 whole entry, the tested form may be a part): as above
Assay [4] has as its target T1, RNA demethylase ALKBH5. Description: Inhibition of ALKBH5 (66 to 292 residues)(unknown origin) expressed in Escherichia coli BL21(DE3) using 5'-ATTGTCA(m6A)CAGCAGA-FAM-3' as substrate incubated for 30 mins in presence of 20 uM of 2-OG by FP based competitive binding assay.
Target sequence in this assay (Q6P6C2 whole entry, the tested form may be a part): as above
Assay [5] has as its target T1, RNA demethylase ALKBH5. Description: Inhibition of ALKBH5 (66 to 292 residues)(unknown origin) expressed in Escherichia coli BL21(DE3) using 5'-ATTGTCA(m6A)CAGCAGA-FAM-3' as substrate incubated for 30 mins in presence of 2 uM of 2-OG by FP based competitive binding assay.
Target sequence in this assay (Q6P6C2 whole entry, the tested form may be a part): as above
Assay [6] has as its target T1, RNA demethylase ALKBH5. Description: Inhibition of ALKBH5 (66 to 292 residues)(unknown origin) expressed in Escherichia coli BL21(DE3) using 5'-ATTGTCA(m6A)CAGCAGA-FAM-3' as substrate incubated for 30 mins in presence of 0.2 uM of 2-OG by FP based competitive binding assay.
Target sequence in this assay (Q6P6C2 whole entry, the tested form may be a part): as above
Assay [7] has as its target T1, RNA demethylase ALKBH5. As to the kind of experiment: Binding affinity to ALKBH5 (66 to 292 residues)(unknown origin) expressed in Escherichia coli BL21(DE3) assessed as increase in melting temperature incubated for 30 mins by thermal shift assay.
Target sequence in this assay (Q6P6C2 2-394 limits assumed): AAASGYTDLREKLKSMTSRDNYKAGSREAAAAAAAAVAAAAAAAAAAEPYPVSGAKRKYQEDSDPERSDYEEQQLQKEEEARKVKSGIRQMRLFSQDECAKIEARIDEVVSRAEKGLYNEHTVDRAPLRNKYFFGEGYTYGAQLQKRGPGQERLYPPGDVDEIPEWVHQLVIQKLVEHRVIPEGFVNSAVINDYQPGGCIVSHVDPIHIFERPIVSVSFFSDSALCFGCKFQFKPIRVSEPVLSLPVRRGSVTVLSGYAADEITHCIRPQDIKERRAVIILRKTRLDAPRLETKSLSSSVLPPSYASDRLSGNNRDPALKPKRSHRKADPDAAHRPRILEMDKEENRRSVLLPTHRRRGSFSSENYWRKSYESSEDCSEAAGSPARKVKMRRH

The IC50 is the point on the concentration scale where inhibition reaches its midpoint. Broadly, the ΔTm is the shift of the melting midpoint relative to a reference.

Chain of Alpha-ketoglutarate-dependent dioxygenase FTO (Q9C0B1 whole entry, the tested form may be a part): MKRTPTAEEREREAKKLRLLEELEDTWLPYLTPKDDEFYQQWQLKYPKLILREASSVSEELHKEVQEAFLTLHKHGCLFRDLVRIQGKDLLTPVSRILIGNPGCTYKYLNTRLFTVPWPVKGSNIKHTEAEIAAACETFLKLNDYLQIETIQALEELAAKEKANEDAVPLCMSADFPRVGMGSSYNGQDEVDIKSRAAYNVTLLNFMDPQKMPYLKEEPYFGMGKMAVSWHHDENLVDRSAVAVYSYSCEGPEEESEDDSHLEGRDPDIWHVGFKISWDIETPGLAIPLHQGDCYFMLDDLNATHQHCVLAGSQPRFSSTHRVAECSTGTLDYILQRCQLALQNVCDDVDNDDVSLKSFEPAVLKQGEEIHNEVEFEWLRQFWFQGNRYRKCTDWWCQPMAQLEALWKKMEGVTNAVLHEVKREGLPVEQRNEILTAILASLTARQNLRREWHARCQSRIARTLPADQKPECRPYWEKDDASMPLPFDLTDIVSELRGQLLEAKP

For `O=C(c1cnc2cc(-c3ccc(Cl)cc3)nn2c1)c1ccccc1O`, the IC50 in assay [1] and in assay [2] was more than 200 µM in each case.
For `COc1ccc([N+](=O)[O-])cc1C(=O)c1cnc2cc(-c3ccc(Cl)cc3)nn2c1`, the half-inhibitory concentration (IC50) in assay [1] and in assay [2] was more than 200 µM in each case.
Take `COC(=O)c1ccc(-c2cc3ncc(C(=O)c4cc([N+](=O)[O-])ccc4O)cn3n2)cc1`: the IC50 in assay [1] is 9.12 µM; in assay [2], more than 200 µM.
On to `O=C(OCc1ccccc1)c1ccc(-c2cc3ncc(C(=O)c4cc([N+](=O)[O-])ccc4O)cn3n2)cc1`, for which the IC50 in assay [1] is 7.88 µM; in assay [2], more than 200 µM.
Regarding `O=C(c1cnc2cc(-c3ccc(Cl)cc3)nn2c1)c1c(O)ccc([N+](=O)[O-])c1O`, the IC50 in assay [1] turned out to be 14.4 µM; in assay [2] it was 8.39 µM.
Regarding `O=C(c1cnc2cc(-c3ccc(C(F)(F)F)cc3)nn2c1)c1cc([N+](=O)[O-])ccc1O`, the concentration for half-maximal inhibition (IC50) was 23.3 µM in assay [1] and more than 200 µM in assay [2].
With `O=C(c1cnc2cc(-c3ccc(Cl)cc3)nn2c1)c1cccc([N+](=O)[O-])c1O`, the values for the IC50 in assay [1] and in assay [2] were 62.7 µM and more than 200 µM, respectively.
With `Cc1ccc(-c2cc3ncc(C(=O)c4cc([N+](=O)[O-])ccc4O)cn3n2)cc1`, the IC50 in assay [1] and in assay [2] was more than 200 µM throughout.
`O=C(c1cnc2cc(-c3ccccc3)nn2c1)c1cc([N+](=O)[O-])ccc1O` had a half-inhibitory concentration (IC50) in assay [1] of 45.1 µM.
With `O=C(O)c1ccnc(C(=O)NS(=O)(=O)c2ccccc2)c1`, the half-inhibitory concentration (IC50) in assay [1] worked out at 67.7 µM; in assay [3], 269 µM; in assay [4], 211 µM; in assay [5] it was 135 µM; in assay [6], 87.6 µM.
For the compound `O=C(OCc1ccc(C(F)(F)F)cc1)c1ccc(-c2cc3ncc(C(=O)c4cc([N+](=O)[O-])ccc4O)cn3n2)cc1`, the 50% inhibitory concentration (IC50) is 4.64 µM in assay [1] and more than 200 µM in assay [2].
For `O=C(c1cnc2cc(-c3cccc(Cl)c3)nn2c1)c1cc([N+](=O)[O-])ccc1O`, the IC50 in assay [1] was 24.6 µM; in assay [2] it was more than 200 µM.
Take `O=C(O)c1ccc(-c2cc3ncc(C(=O)c4cc([N+](=O)[O-])ccc4O)cn3n2)cc1`: the IC50 in assay [1] is 56.5 µM; in assay [2], 5.98 µM.
With `O=C(c1cnc2cc(-c3ccccc3Cl)nn2c1)c1cc([N+](=O)[O-])ccc1O`, the results for the IC50 in assay [1] and in assay [2] were 102 µM and more than 200 µM, respectively.
For the compound `O=C(c1cnc2cc(-c3ccc(Cl)cc3)nn2c1)c1cc([N+](=O)[O-])ccc1O`, the IC50 in assay [1] was 15.6 µM; in assay [2], more than 200 µM. Further, in assay [7], the thermal shift (ΔTm) was more than 1 °C.
Turning to `O=C(OCc1ccc(Cl)cc1)c1ccc(-c2cc3ncc(C(=O)c4cc([N+](=O)[O-])ccc4O)cn3n2)cc1`, the half-inhibitory concentration (IC50) was 10.7 µM in assay [1] and more than 200 µM in assay [2].
As to `O=C(c1cnc2cc(-c3ccc(O)cc3)nn2c1)c1cc([N+](=O)[O-])ccc1O`, the half-maximal inhibitory concentration (IC50) amounted to 46.4 µM in assay [1] and 16.6 µM in assay [2].
On to `Cc1ccc(COC(=O)c2ccc(-c3cc4ncc(C(=O)c5cc([N+](=O)[O-])ccc5O)cn4n3)cc2)cc1`, for which the half-inhibitory concentration (IC50) in assay [1] was 41 µM; in assay [2], more than 200 µM.
As to `O=C(c1cnc2cc(-c3ccc(Cl)cc3)nn2c1)c1cc(C(F)(F)F)ccc1O`, the IC50 in assay [1] and in assay [2] was more than 200 µM each time.
As for `O=C(O)c1ccc(O)c(C(=O)c2cnc3cc(-c4ccc(Cl)cc4)nn3c2)c1`, the figures for the IC50 in assay [1] and in assay [2] were 141 µM and more than 200 µM, respectively.

(Values after ChEMBL document CHEMBL5375956, “Discovery of Pyrazolo[1,5-a]pyrimidine Derivative as a Novel and Selective ALKBH5 Inhibitor for the Treatment of AML” (J Med Chem, 2023).)
